In US20210346359A1, “Use of CFTR Modulators For Treating Cerebrovascular Conditions” (Qanatpharma AG, priority 2018, published 2021):
Entries after “also recorded” stand apart in the source; their conditions may differ.

Assays:
[1] = Global hemodynamic parameters (CO, TPR, MAP) in heart failure mice; type: in vivo, mouse; details: HF mice, 3 mg/kg daily for 2 days
Method: As previously described (9-11), echocardiographic measurements were collected with a 30 MHz mechanical sector transducer (Vevo 770; Visual Sonics, Toronto, Canada) in conjunction with the mean arterial pressure (MAP) measurements (Millar SPR-671 micro-tip mouse pressure catheter; Inter V Medical Inc., Montreal, Canada). The aortic flow velocity-time integral (VTI) was measured using pulse wave Doppler just above the aortic root. The aortic cross-sectional area (CSA) was calculated from the aortic root dimension (ARD): CSA=π(ARD/2)2. Stroke volume (SV), CO and TPR were calculated as: SV=CSA×VTI; CO=SV×HR; TPR=MAP/CO.
Myocardial infarction: HF was induced by surgical ligation of the left anterior descending coronary artery (3). Briefly, mice were anaesthetized with isoflurane, intubated with a 20-gauge angiocatheter and ventilated with room air. Under sterile conditions, the thorax and pericardium were opened, and the left anterior descending coronary artery was permanently ligated with 7-0 silk suture (Deknatel: Fall River, USA). In sham-operated controls, the thorax and pericardium were opened, but the left anterior descending coronary artery was not ligated. Following the procedure, the chest was closed and the mice were extubated upon spontaneous respiration. Posterior cerebral arteries (PCAs) were isolated 4-6 weeks post-infarction.

mice with heart failure = experiment: MRI (FAIR) cerebral blood flow in heart failure mice; type: in vivo, mouse; details: HF mice, forebrain cortical, 3 mg/kg daily for 2 days
Source text: As described previously (10-12), we utilized a flow-sensitive alternating inversion recovery (FAIR) magnetic resonance imaging (MRI) technique (13) to evaluate cerebral blood flow (CBF). During imaging, mice were immobilized with 1.8% isoflurane delivered through a nose cone. To maintain body temperature, the MRI is equipped with embedded tubes that convect water from an external heater-pump. Respiration was monitored using a pneumatic pillow (SA Instruments, Stonybrook, USA); isoflurane levels were adjusted to maintain respiration at approximately 50 breaths/minute.
FAIR images were obtained using a 7 Tesla micro-MRI system (BioSpec 70/30 USR, Bruker BioSpin, Ettlingen, Germany), including the B-GA12 gradient insert, 72 mm inner diameter linear volume resonator for RF transmission, and anteriorly placed head coil for RF reception. […] FAIR images were evaluated by manual prescription (MIPAV, NIH, Bethesda, MD; http://mipav.cit.nih.gov) of sub-hemispheric regions-of-interest (ROIs), termed ‘global’, and local ROIs corresponding to cortical and sub-cortical parenchyma in forebrain sections; cortical and paraventricular parenchyma in middle sections; and cortical and midbrain parenchyma in hindbrain sections. […]

CFTR = CFTR (Mus musculus, UniProt P26361); experiment: FACS-based FITC-S1P uptake in vascular smooth muscle cells; type: cell-based; parameters: mesenteric artery segments were isolated, cut into small pieces and digested with trypsin, collagenase and elastase; endogenous in cells; host or cells: primary mesenteric artery vascular smooth muscle cells; details: primary vascular smooth muscle cells; 48 h TNF 10 ng/ml + C18 6 μmol/L for last 24 h
Method: Procedures for isolating and culturing mesenteric artery smooth muscle cells were carried out as described in (10). Briefly, mesenteric artery segments were isolated, cut into small pieces and digested with trypsin, collagenase and elastase. The resulting cell suspension was washed several times in phosphate-buffered saline and plated in Dulbecco's Modified Eagle Medium (DMEM) culture media containing 10% fetal bovine serum and 1% penicillin-streptomycin. Cell cultures were maintained at 37° C. with 5% CO2 and split at […] cells seeding density. Baby hamster kidney fibroblast cells stably expressing wild-type human CFTR (10,17) were maintained in DMEM/F12 media containing 5% fetal bovine serum and 250 μmol/L methotrexate (which activates the CFTR transgene promoter). Cells were maintained under standard cell culture conditions at 37° C. with 5% CO2.
As previously described (10), cell monolayers (treated or untreated) were incubated with 1 μmol/L S1P-FITC for 60 minutes; the cells were then detached by trypsinization, washed twice with ice-cold PBS, filtered through a 35 μm cell strainer and analyzed using the Becton-Dickinson FACS Canto operated by FACS DIVA version 6.1 software. […] The analysis procedure determined the mean fluorescence intensity (arbitrary units) of each cell population, which is a measure of uptake.

Chain of CFTR (P26361 whole entry): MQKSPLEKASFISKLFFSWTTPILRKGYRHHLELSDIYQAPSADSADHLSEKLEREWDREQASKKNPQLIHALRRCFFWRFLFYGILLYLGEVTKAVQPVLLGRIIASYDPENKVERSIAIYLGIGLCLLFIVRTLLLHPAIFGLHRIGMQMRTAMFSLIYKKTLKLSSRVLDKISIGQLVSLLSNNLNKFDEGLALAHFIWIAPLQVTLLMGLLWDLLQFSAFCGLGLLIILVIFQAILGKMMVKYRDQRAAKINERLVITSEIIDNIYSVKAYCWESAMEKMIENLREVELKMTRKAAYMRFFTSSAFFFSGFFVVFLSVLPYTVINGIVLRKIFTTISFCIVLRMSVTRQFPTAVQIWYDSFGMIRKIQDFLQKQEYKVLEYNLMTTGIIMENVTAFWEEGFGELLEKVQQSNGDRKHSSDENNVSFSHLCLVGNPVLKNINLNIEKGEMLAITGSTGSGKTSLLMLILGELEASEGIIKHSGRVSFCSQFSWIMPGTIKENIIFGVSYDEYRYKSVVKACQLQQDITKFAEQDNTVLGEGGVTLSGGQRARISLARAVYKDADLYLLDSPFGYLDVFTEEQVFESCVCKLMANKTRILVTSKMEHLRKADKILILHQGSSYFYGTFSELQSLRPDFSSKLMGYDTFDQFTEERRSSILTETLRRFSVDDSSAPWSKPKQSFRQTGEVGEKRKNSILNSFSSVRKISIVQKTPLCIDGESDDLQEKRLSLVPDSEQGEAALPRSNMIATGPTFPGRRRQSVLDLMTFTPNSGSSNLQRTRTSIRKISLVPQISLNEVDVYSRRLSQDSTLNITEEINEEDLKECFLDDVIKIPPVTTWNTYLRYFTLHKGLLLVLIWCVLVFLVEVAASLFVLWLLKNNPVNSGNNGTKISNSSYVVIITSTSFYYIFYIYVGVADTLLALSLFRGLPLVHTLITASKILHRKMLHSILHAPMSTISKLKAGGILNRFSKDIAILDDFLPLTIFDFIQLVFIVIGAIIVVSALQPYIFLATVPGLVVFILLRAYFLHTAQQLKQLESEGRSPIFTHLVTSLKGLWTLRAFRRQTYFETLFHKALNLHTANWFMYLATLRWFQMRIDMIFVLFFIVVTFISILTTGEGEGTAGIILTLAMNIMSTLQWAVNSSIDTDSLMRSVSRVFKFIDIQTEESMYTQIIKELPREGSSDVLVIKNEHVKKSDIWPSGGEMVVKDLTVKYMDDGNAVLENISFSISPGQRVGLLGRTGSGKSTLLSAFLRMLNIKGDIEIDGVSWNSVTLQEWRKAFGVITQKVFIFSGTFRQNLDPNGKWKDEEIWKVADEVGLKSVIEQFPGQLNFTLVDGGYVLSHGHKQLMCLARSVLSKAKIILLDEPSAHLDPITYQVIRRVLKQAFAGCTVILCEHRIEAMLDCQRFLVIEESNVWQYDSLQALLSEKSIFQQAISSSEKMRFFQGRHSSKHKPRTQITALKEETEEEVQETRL

For O=C(Nc1ncc(C(c2ccccc2Cl)N2CCC(O)C2)s1)C1(c2ccc3c(c2)OCO3)CC1 (centres unmarked) [C18, 1-(benzo[d][1,3]dioxol-5-yl)-N-(5-((2-chlorophenyl)(3-hydroxypyrrolidin-1-yl)methyl)thiazol-2-yl)cyclopropanecarboxamide], the “cardiac injury induced by left anterior descending coronary artery ligation” value [1] was “does not ameliorate”, the “mean arterial pressure (MAP)” value [1] was “no effect” and the “total peripheral resistance (TPR)” value ([1]; 3 mg/kg) was “no effect; also recorded: lack of effect”. For the same compound, the “cerebral blood flow / cerebral perfusion” value (mice with heart failure) was “restores; also recorded: significantly improves” and the “FITC-labeled sphingosine-1-phosphate uptake after TNF” value (CFTR) was “fully restores; also recorded: normalization”.
